Laboratory results: patent publication EP0723956B1, “Basically substituted benzoylguanidines, process for their preparation, their use as medicaments or diagnostics as well as medicaments containing them” (HOECHST AKTIENGESELLSCHAFT, priority 1995, dated 1996)
pIC50: −log10 of the molar value. Values after ≈ are worked out from the molar mass of the structure shown.

System: Rattenherzen
Test: not given
Conditions: isolated rat hearts; Eur. Heart J. 9 (suppl.1): 167 (1988); cited from earlier work

Molecule | künstlich ausgelöstes Kammerflimmern
CCN(c1nc(N)c(C(=O)N=C(N)N)nc1Cl)C(C)C [Ethylisopropylamilorid] | Noch potenter als Amilorid
NC(N)=NC(=O)c1nc(Cl)c(N)nc1N [Amilorid] | völlig unterdrückt

System: not listed separately
Test: Water solubility
Format: physicochemical
Conditions: Dihydrochlorid, pH = 5.3, read-out: Wasserlöslichkeit

solubility | Molecule
49 mg/mL (≈ 124 mM) | CN(C)CCc1ccc(Oc2ccc(C(=O)N=C(N)N)cc2C(F)(F)F)cc1 [Beispiel 21, 3-Trifluormethyl-4-[4-(2-dimethylaminoethyl)phenoxy]benzoyl-guanidin]

Molecular target: T1, Na^+/H^+-Exchangers von Kaninchenerythrocyten (Oryctolagus cuniculus, UniProt P23791)
T1 construct: den Na^+-Influx in die Erythrocyten via Na^+/H^+-Austausch flammenphotometrisch bestimmen zu können; endogenous in cells; host or cells: erythrocytes in whole blood from the ear arteries of New Zealand White rabbits
T1 sequence (P23791 whole entry): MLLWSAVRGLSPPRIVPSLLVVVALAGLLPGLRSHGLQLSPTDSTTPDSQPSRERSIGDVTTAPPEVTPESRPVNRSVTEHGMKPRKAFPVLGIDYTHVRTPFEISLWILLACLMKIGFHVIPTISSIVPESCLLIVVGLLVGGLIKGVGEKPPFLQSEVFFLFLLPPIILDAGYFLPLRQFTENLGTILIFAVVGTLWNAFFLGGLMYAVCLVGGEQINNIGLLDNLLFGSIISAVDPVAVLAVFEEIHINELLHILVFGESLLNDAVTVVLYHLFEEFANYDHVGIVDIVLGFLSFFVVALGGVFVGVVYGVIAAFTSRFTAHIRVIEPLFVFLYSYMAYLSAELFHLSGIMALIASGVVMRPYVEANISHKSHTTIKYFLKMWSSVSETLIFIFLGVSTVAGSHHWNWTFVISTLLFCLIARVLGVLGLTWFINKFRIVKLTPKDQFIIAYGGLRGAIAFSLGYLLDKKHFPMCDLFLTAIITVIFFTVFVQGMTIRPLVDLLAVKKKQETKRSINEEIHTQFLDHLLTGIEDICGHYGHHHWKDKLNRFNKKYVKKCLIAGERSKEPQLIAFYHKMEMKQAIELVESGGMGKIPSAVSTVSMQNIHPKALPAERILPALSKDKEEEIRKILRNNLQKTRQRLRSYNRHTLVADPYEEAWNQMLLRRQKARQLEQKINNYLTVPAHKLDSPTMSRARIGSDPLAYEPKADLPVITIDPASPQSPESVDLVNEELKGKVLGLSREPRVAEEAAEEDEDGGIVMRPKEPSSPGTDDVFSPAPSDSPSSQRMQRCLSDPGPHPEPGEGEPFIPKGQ
Test: Inhibition of the Na+/H+ exchanger of rabbit erythrocytes (amiloride-sensitive Na+ influx, flame photometry)
Format: cell-based, Kaninchen
Conditions: Inhibition des Na^+/H^+-Exchangers; erythrocytes of cholesterol-fed rabbits, hyperosmolar salt-sucrose medium, pH 7,4, 37°C
Source text: Inhibition des Na^+/H^+-Exchangers von Kaninchenerythrocyten
Weiße Neuseeland-Kaninchen (Ivanovas) erhielten eine Standard-Diät mit 2 % Cholesterin für sechs Wochen, um den Na^+/H^+-Austausch zu aktivieren und so den Na^+-Influx in die Erythrocyten via Na^+/H^+-Austausch flammenphotometrisch bestimmen zu können. Das Blut wurde den Ohrarterien entnommen und durch 25 IE Kalium-Heparin ungerinnbar gemacht. Ein Teil jeder Probe wurde zur Doppelbestimmung des Hämatokrits durch Zentrifugieren benutzt. Aliquots von jeweils 100 µl dienten zur Messung des Na^+-Ausgangsgehalts der Erythrocyten.
Um den Amilorid-sensitiven Natrium-lnflux zu bestimmen, wurden 100 µl jeder Blutprobe in jeweils 5 ml eines hyperosmolaren Salz-Sucrose-Mediums (mmol/l: 140 NaCl, 3 KCI, 150 Sucrose, 0,1 Ouabain, 20 Tris-hydroxymethyl-aminomethan) bei pH 7,4 und 37°C inkubiert. Die Erythrocyten wurden danach dreimal mit eiskalter MgCl2-Ouabain-Lösung (mmol/l: 112 MgCl2, 0,1 Ouabain) gewaschen und in 2,0 ml destilliertem Wasser hämolysiert. Der intrazelluläre Natriumgehalt wurde flammenphotometrisch bestimmt.
Der Na^+-Nettoinflux wurde aus der Differenz zwischen Natrium-Ausgangswerten und dem Natriumgehalt der Erythrocyten nach Inkubation errechnet. Der Amiloridhemmbare Natrium-lnflux ergab sich aus der Differenz des Natriumgehalts der Erythrocyten nach Inkubation mit und ohne Amilorid 3 x 10-4 mol/l. Auf diese Weise wurde auch bei den erfindungsgemäßen Verbindungen verfahren.

Molecule | pIC50
CN1CCN(S(=O)(=O)c2ccc(Oc3ccc(C(=O)N=C(N)N)cc3C(F)(F)F)cc2)CC1 [Beispiel 4, 4-[4-(4-Methylpiperazinosulfonyl)phenoxy]-3-trifluormethylbenzoylguanidin] | 7.09
CS(=O)(=O)c1cc(C(=O)N=C(N)N)ccc1Oc1ccc(C(=O)N=C(N)N)cc1 [Beispiel 18, 4-[(4-Guanidinocarbonyl)phenoxy]-3-methylsulfonylbenzoylguanidin] | 6.70
4-[4-(N-t-Butylimido-N'-t-butyl)sulfamoyl]-3-trifluormethyl-benzoylguanidin [Beispiel 2] | 6.49
CN(C)CCSc1ccc(Oc2ccc(C(=O)N=C(N)N)cc2S(C)(=O)=O)cc1 [Beispiel 16, 4-[4-(2-Dimethylaminoethylthio)phenoxy]-3-methylsulfonylbenzoylguanidin] | 6.80
NC(N)=NC(=O)c1ccc(Oc2ccc(S(=O)(=O)NCCN3CCCC3)cc2)c(C(F)(F)F)c1 [Beispiel 5, 4-[4-(2-Pyrolidinethylaminosulfonyl)phenoxy]-3-trifluormethylbenzoylguanidin] | 6.52
CN(C)CCN(C)S(=O)(=O)c1ccc(Oc2ccc(C(=O)N=C(N)N)cc2C(F)(F)F)cc1 [Beispiel 3, 4-[4-N-(Dimethylaminoethyl)-methylsulfamoyl]phenoxy-3-trifluormethylbenzoylguanidin] | 7.30
CN(C)CCSCc1ccc(Oc2ccc(C(=O)N=C(N)N)cc2C(F)(F)F)cc1 [Beispiel 19, 4-[4-(2-Dimethylaminoethyl)thiomethyl-phenoxy]-3-trifluormethylbenzoylguanidin] | 8.10
CN(C)CCc1ccc(Oc2ccc(C(=O)N=C(N)N)cc2S(C)(=O)=O)cc1 [Beispiel 14, 3-Methylsulfonyl-[4-(2-dimethylaminoethyl)phenoxy]benzoyl-guanidin] | 7.30
CN(C)CCNS(=O)(=O)c1ccc(Oc2ccc(C(=O)N=C(N)N)cc2C(F)(F)F)cc1 [Beispiel 8, 4-[4-(N-Dimethylaminoethyl)sulfamoyl]phenoxy-3-trifluormethylbenzoylguanidin] | 8.30
NC(N)=NC(=O)c1ccc(Oc2ccc(S(N)(=O)=O)cc2)c(C(F)(F)F)c1 [Beispiel 1, 4-(4-Aminosulfonyl)phenoxy-3-trifluormethyl-benzoylguanidin] | 6.10
N=S(N)(=O)c1ccc(Oc2ccc(C(=O)N=C(N)N)cc2C(F)(F)F)cc1 (stereo not shown) [Beispiel 9, 4-(4-lmidamidosulfonyl)phenoxy-3-trifluormethyl-benzoylguanidin] | 7.00
CN(C)CCS(=O)(=O)c1ccc(Oc2ccc(C(=O)N=C(N)N)cc2S(C)(=O)=O)cc1 [Beispiel 17, 4-[4-(2-Dimethylaminoethylsulfonyl)phenoxy]-3-methylsulfonylbenzoylguanidin] | 6.00
CN(C)CCCNS(=O)(=O)c1ccc(Oc2ccc(C(=O)N=C(N)N)cc2C(F)(F)F)cc1 [Beispiel 7, 4-[4-(N-Dimethylamino-n-propyl)sulfamoyl]phenoxy-3-trifluormethylbenzoylguanidin] | 7.22
CN(C)CCSCc1ccc(Oc2ccc(C(=O)N=C(N)N)cc2S(C)(=O)=O)cc1 [Beispiel 15, 4-[4-(2-Dimethylaminoethyl)thiomethyl-phenoxy]-3-methylsulfonylbenzoyl-guanidin] | 8.00
NC(N)=NC(=O)c1ccc(Oc2ccc(S(=O)(=O)NCCN3CCCCC3)cc2)c(C(F)(F)F)c1 [Beispiel 6, 4-[4-(2-Piperidinethylaminosulfonyl)phenoxy]-3-trifluormethylbenzoylguanidin] | 7.00

Further lines, results first:

pIC50 | Molecule
7.85 | CN(C)CCc1ccc(Oc2ccc(C(=O)N=C(N)N)cc2C(F)(F)F)cc1 [Beispiel 21, 3-Trifluormethyl-4-[4-(2-dimethylaminoethyl)phenoxy]benzoyl-guanidin]
6.36 | CS(=O)(=O)c1cc(C(=O)N=C(N)N)ccc1Oc1ccc(C(O)Cn2ccnc2)cc1 (stereo not shown) [Beispiel 32, 4-[4-(2-N-lmidazolyl-1-hydroxyethyl)phenoxy]-3-methylsulfonylbenzoylguanidin]
7.15 | CN(C)CCS(=O)(=O)Cc1ccc(Oc2ccc(C(=O)N=C(N)N)cc2C(F)(F)F)cc1 [Beispiel 47, 4-[4-(2-Dimethylaminoethyl)sulfonylmethyl-phenoxy]-3-trifluormethylbenzoyl-guanidin]
6.92 | CN=C(NC)SCC(=O)c1ccc(Oc2ccc(C(=O)N=C(N)N)cc2S(C)(=O)=O)cc1 [Beispiel 28, 4-[4-(N,N'-Dimethyl-S-isothiuronyl-acetyl)phenoxy]-3-methylsulfonylbenzoylguanidin]
6.70 | CS(=O)(=O)c1cc(C(=O)N=C(N)N)ccc1Oc1ccc(S(N)(=O)=O)cc1 [Beispiel 33, 3-Methylsulfonyl-4-(4-sulfamoylphenoxy)benzoylguanidin]
7.05 | CN(C)CCS(=O)(=O)Cc1ccc(Oc2ccc(C(=O)N=C(N)N)cc2S(C)(=O)=O)cc1 [Beispiel 46, 4-[4-(2-Dimethylaminoethyl)sulfonylmethyl-phenoxy]-3-methylsulfonylbenzoyl-guanidin]
7.40 | CN(C)CCSc1ccc(Oc2ccc(C(=O)N=C(N)N)cc2C(F)(F)F)cc1 [Beispiel 20, 4-[4-(2-Dimethylaminoethylthio)phenoxy]-3-trifluormethylbenzoylguanidin]
